Experimental findings from US20250275539A1, “APYRASE INHIBITORS” (Texas Crop Science, Inc., priority 2024, published 2025) are described below.

Like-named read-outs stand apart in the source and are kept apart here.

One assay has as its system apyrase. Nature of the assay: Apyrase inhibition assay (screen for apyrase inhibitors, phosphate release read at 630 nm). It counts as biochemical. The note with it: inhibitor conc at 1 mM (10 μl added), 3 mM ATP, pH 6.5, room temperature 1 hr.
Assay [1] has as its system Brown Rust (Puccinia recondita) on wheat. Nature of the assay: Greenhouse crop test: control of Brown Rust on wheat in combination with commercial fungicides. Format: in vivo. The note with it: wheat JB Diego, inoculated 24 hours after treatment, evaluated at fourteen days; for Amistar (% control of the disease, compound + fungicide): with Amistar 0.04 L/ha; for Balaya (% control of the disease, compound + fungicide): with Balaya 0.25 L/ha; for Imtrex (% control of the disease, compound + fungicide): with Imtrex 0.45 L/ha; for Proline (% control of the disease, compound + fungicide): with Proline 0.15 L/ha. On the procedure:
In this method, exemplary compounds were evaluated for their ability to control Brown Rust (Puccinia recondita) on wheat in a controlled greenhouse environment in combination with one of four fungicides, Amistar, Imtrex, Proline or Balaya. In these studies, wheat plants (JB Diego) were used. Seeds were sown in 9 cm diameter pots to a depth of 1 to 2 cm using Petersfield potting compost (75% medium grade peat, 12% screened sterilized loam, 3% medium grade vermiculite, 10% grit (5 mm screened, lime free), 1.5 kg PG mix per m3, lime to pH5.5-6.0 and wetting agent (Vitax Ultrawet 200 ml per m3) and germinated/grown at 23 C under a 16 h day/8 h night light regime. Plants were treated two to three weeks after sowing when they were at the BBCH 11 growth stage ([…]). Wheat plants were inoculated with Puccinia triticina (Brown rust) 24 hours after treatment. A track sprayer was used to treat the plants with the mixture of commercial fungicide and test compound using a water volume of 200 L/ha. Four replicates were used for each combination of fungicide, pathogen and test compound. Each plant was evaluated at fourteen days (once the disease symptoms were fully expressed) for % control of the disease. Appropriate controls were used for all experiments, including an ‘inoculation check’ wherein plants were inoculated with their specific pathogen to assess disease levels. Also, each commercial fungicide was tested on its own as a part of each treatment, this being benchmark against which the experimental compounds were evaluated. […] That is, the present compounds, although not fungicidal by themselves, enhance the activity of fungicides, thus the enhancer compounds work synergistically in combination with fungicides to control disease. • Amistar (0.04 L/ha) • Imtrex (0.45 L/ha) • Proline (0.15 L/ha) • Balaya (0.25 L/ha)

The subject of assay [2] is Amaranthus retroflexus (pigweed). Kind of assay: Enhancement of herbicide activity: pre-emergence Amaranthus kill with metribuzin. It counts as in vivo. The note with it: for pest or weed control at 100 g/ha: Amaranthus retroflexus; for enhancement of metribuzin herbicidal activity: compound at 100 g/ha with metribuzin, at seven and fourteen days. The method, then: Specifically, Amaranthus retroflexus (pigweed) was treated pre-emergence with metribuzin alone or in combination with an enhancer compound disclosed herein. Fifteen seeds of Amaranthus retroflexus were sown in soil in each pot and then sprayed with a mixture of metribuzin at the appropriate rate shown in Table 5 and the compound of this invention at 100 g/ha using a track sprayer at a water volume of 200 L/hectare. Small amounts of acetone were used to aid solubility. The pots were watered immediately after sowing and treatment and then allowed to stand in a glasshouse. Assessment of kill was made seven and fourteen days after treatment. The test included four replicates for each treatment and the control.

Assay [3] deals with strain of Zymoseptoria tritici with a reduced susceptibility to strobilurin fungicides. Kind of assay: In vitro assessment of combination activity with fungicides, pathogen growing on agar. The note with it: in combination with azoxystrobin, fluxapyroxad or desthio prothioconazole. It counts as cell-based. On the procedure:
(§1) Selected compounds are assessed in combination with fungicides against a range of commercially important plant pathogenic fungi.
(§2) The test is conducted as follows. A fungicide is applied to a fungal plant pathogen at a rate slightly below that at which it gave any control, in combination with a suitable dose of the test compound. The test compounds are recorded as active if control of the pathogen was observed.
(§3) In more detail, the test is conducted as follows. For each combination of fungicide, pathogen and test compound, the following wells are used. Well 1 contains a fungal pathogen growing on agar, and a fungicide at a rate just below that at which it gave any control of the pathogen. Well 2 is the same as Well 1, except that the test compound is also added at Rate 1. Well 3 is the same as Well 2, except that the test compound is added at Rate 2, where Rate 2 is higher than Rate 1. Finally, as a benchmark, Well 4 is the same as Well 1, except that it contained the fungicide at a higher rate, at which it gave partial control of the pathogen. Each of the Wells 1 to 4 are run in duplicate, giving a total of 8 wells for each combination of fungicide, pathogen and test compound. For each well, after a suitable period of incubation, a visual assessment of the % control of the pathogen by the fungicide is made.
(§4) The following fungicides are used in this assay: azoxystrobin, fluxapyroxad, and desthio prothioconazole. The following fungal pathogens are used in this assay: First, a strain of Zymoseptoria tritici with a reduced susceptibility to strobilurin fungicides; second a strain of Zymoseptoria tritici with a reduced susceptibility to SDHI fungicides (i.e., those that inhibit succinate dehydrogenase); and third, Microdochium nivale. […] In contrast, compounds of the present disclosure are effective in the combination assay, enhancing fungicidal activity of one or more fungicides against at least one strain.

The test system of assay [4] is strain of Zymoseptoria tritici with a reduced susceptibility to SDHI fungicides. The assay is described as above. The note with it: in combination with azoxystrobin, fluxapyroxad or desthio prothioconazole. It counts as cell-based. On the procedure:
as §1, §2, §3, §4

The test system of the next assay is Microdochium nivale. The description is as above. It counts as cell-based. The note with it: in combination with azoxystrobin at a rate just below that giving control; visual % control. The method, then: as §1, §2, §3, §4
The mark [5] stands for this setting: 168 h, read-out: Pre-Emergence Amaranthus Kill Percentage, Assessed 7 DAT, Metribuzin rate 50 g/ha.
Setting [6] is: 168 h, read-out: Pre-Emergence Amaranthus Kill Percentage, Assessed 7 DAT, Metribuzin rate 100 g/ha.
Where [7] appears, read: 168 h, read-out: Pre-Emergence Amaranthus Kill Percentage, Assessed 7 DAT, Metribuzin rate 200 g/ha.
[8] abbreviates: 336 h, read-out: Pre-Emergence Amaranthus Kill Percentage, Assessed 14 DAT, Metribuzin rate 50 g/ha.
[9] abbreviates: 336 h, read-out: Pre-Emergence Amaranthus Kill Percentage, Assessed 14 DAT, Metribuzin rate 100 g/ha.
[10] abbreviates: 336 h, read-out: Pre-Emergence Amaranthus Kill Percentage, Assessed 14 DAT, Metribuzin rate 200 g/ha.

For the compound `Cc1cccc(NS(=O)(=O)c2ccc(CCC(=O)O)cc2)c1` [Compound A-103, 3-(4-(N-(m-tolyl)sulfamoyl)phenyl) propanoic acid], the Inhibition result in the assay on apyrase is “B (B is inhibition from 20% to 30%)”. Further, in assay [1], the “Amistar (% control of the disease, compound + fungicide)” value amounted to 37.0%. Besides, the “Balaya (% control of the disease, compound + fungicide)” value in assay [1] came out at 67.2%. Further, the “Imtrex (% control of the disease, compound + fungicide)” value in assay [1] was 13.2%. The “Proline (% control of the disease, compound + fungicide)” value in assay [1] is 4.4%. In addition, the pest or weed control at 100 g/ha in assay [2] (setting [5]) worked out at 5.1%; in assay [2] (setting [6]), 54.7%; in assay [2] (setting [7]), 91.5%; in assay [2] (setting [8]), 30.6%; in assay [2] (setting [9]), 43.1%; in assay [2] (setting [10]), 98.4%. Besides, in assay [2], the “enhancement of metribuzin herbicidal activity” value is on record as “significant enhancement”.

Regarding `Cc1ccnc(NS(=O)(=O)c2ccc(CC#N)cc2)n1` [Compound A-21, 4-(cyanomethyl)-N-(4-methylpyrimidin-2-yl)benzenesulfonamide], the Inhibition result in the assay with apyrase is “A (A is inhibition above 30%)”. Further, the “Amistar (% control of the disease, compound + fungicide)” value in assay [1] amounted to 48.5%. For the same compound, in assay [1], the “Balaya (% control of the disease, compound + fungicide)” value is recorded as 39.0%. Also, in assay [1], the “Imtrex (% control of the disease, compound + fungicide)” value is 47.7%. Besides, the “Proline (% control of the disease, compound + fungicide)” value in assay [1] was 1.2%. Also, the pest or weed control at 100 g/ha in assay [2] (setting [5]) amounted to 0%; in assay [2] (setting [6]), 62.3%; in assay [2] (setting [7]), 100%; in assay [2] (setting [8]), 4.4%; in assay [2] (setting [9]) it was 63%; in assay [2] (setting [10]) it was 100%. For the same compound, the “enhancement of metribuzin herbicidal activity” value in assay [2] is listed as “significant enhancement”.

On to `COc1cccc(NS(=O)(=O)c2ccc(-c3ccccc3)cc2)c1` [Compound A-3, N-(3-methoxyphenyl)-[1,1′-biphenyl]-4-sulfonamide], for which the Inhibition entry with apyrase is recorded as “A (A is inhibition above 30%)”. In addition, the “Amistar (% control of the disease, compound + fungicide)” value in assay [1] is 81.4%. Further, in assay [1], the “Balaya (% control of the disease, compound + fungicide)” value is on record as 38.9%. The “Imtrex (% control of the disease, compound + fungicide)” value in assay [1] stood at 47.6%. Moreover, the “Proline (% control of the disease, compound + fungicide)” value in assay [1] is reported as 3.8%. Besides, the pest or weed control at 100 g/ha in assay [2] (setting [5]) was 15.6%; in assay [2] (setting [6]), 68.9%; in assay [2] (setting [7]), 34%; in assay [2] (setting [8]) it was 21.7%; in assay [2] (setting [9]), 72%; in assay [2] (setting [10]), 38.5%. For the same compound, the “enhancement of metribuzin herbicidal activity” value in assay [2] is “significant enhancement”.

For the compound `Cc1cccc(NS(=O)(=O)c2ccc(C(C)C)cc2)c1` [Compound A-59, 4-isopropyl-N-(m-tolyl)benzenesulfonamide], the Inhibition entry with apyrase is on record as “A (A is inhibition above 30%)”. The “Amistar (% control of the disease, compound + fungicide)” value in assay [1] was 95.0%. In assay [1], the “Balaya (% control of the disease, compound + fungicide)” value turned out to be 50.0%. Further, the “Imtrex (% control of the disease, compound + fungicide)” value in assay [1] is reported as 30.9%. Further, in assay [1], the “Proline (% control of the disease, compound + fungicide)” value is on record as 15.6%. Further, the pest or weed control at 100 g/ha came out at 14.3% in assay [2] (setting [5]); 64.6% in assay [2] (setting [6]); 95% in assay [2] (setting [7]); 25.9% in assay [2] (setting [8]); 67.3% in assay [2] (setting [9]); 100% in assay [2] (setting [10]). Besides, in assay [2], the “enhancement of metribuzin herbicidal activity” value is given as “significant enhancement”.

For `O=C(Nc1cccc([N+](=O)[O-])c1)c1cccc(S(=O)(=O)Nc2ccc(Br)cc2)c1` [Roux Compound 13], in assay [3], the “enhancement of fungicide activity against Zymoseptoria tritici strain (reduced susceptibility to strobilurin fungicides)” value was “failing to enhance activity of any fungicide”. The “enhancement of fungicide activity against Zymoseptoria tritici strain (reduced susceptibility to SDHI fungicides)” value in assay [4] is “failing to enhance activity of any fungicide”. Moreover, the “enhancing the activity of azoxystrobin against Microdochium nivale” value in the assay on Microdochium nivale is “exhibited activity”.
